This is an account of results in PMC9602792, “Preclinical evaluation of the epithelial sodium channel inhibitor AZD5634 and implications on human translation” (American Journal of Physiology - Lung Cellular and …, 2022).

Experiment [1] relates to sheep ENaC. The experiment can be described thus: Ussing chamber short-circuit current (Isc) in sheep bronchial epithelial ALI cultures. The class given is cell-based. The settings on record: bronchial epithelial cells from healthy sheep, read-out: potency (IC50) on inhibition of ENaC (EC50 in Fig. 1B legend). As to the method: Normal human bronchial epithelial cell (HBEC) cultures from healthy donors were procured from MatTek Corporation (Ashland, MA), grown at an ALI on Transwell permeable supports (0.4 µm polycarbonate membrane, 12 mm insert, and Costar Corning), and used to test the in vitro potency of AZD5634. Using the same protocol, sheep ALI cultures were prepared from primary bronchial epithelial cells (native sheep tracheas were obtained from Öströö Sheep Farm, Sweden, and internally processed at AstraZeneca R&D, Gothenburg, Sweden) to validate AZD5634 potency at sheep ENaC. Experiments were performed using modified Ussing chambers containing carboxygenated Krebs solution (95% O2-5% CO2) at 37°C. Cell layers were allowed to equilibrate before being voltage-clamped at 0 mV, and then briefly clamped at 10 mV to assess transepithelial electrical resistance.
All data are presented as means ± SE. Values of n refer to the number of cultures used in each group as appropriate. For normally distributed data, paired or unpaired Student’s t tests were used. For data that were not normally distributed, Mann–Whitney U test and Wilcoxon-matched pairs test were used. […] From these curves, pEC50 and Emax values were taken from which mean values were calculated.

The subject of experiment [2] is F508del-homozygous HBEC cultures. The experiment in a line: μOCT imaging of ASL depth, MCT rate and CBF in F508del-homozygous CF HBEC cultures. Format: cell-based, human. The settings on record: AZD5634 1 µM apical. As to the method: Using previously described techniques ([2], [37]), epithelial cells were harvested from excised lung tissue derived from CF donors homozygous for F508del CFTR, expanded, and grown until confluency was attained. The cells were then seeded on 6.5-mm-diameter, 24-well Transwell permeable membrane supports coated with NIH 3T3 fibroblast unconditioned media (0.5 × 10^6 cells/filter; Corning Inc., Corning, NY) and further allowed to mature in differentiating media (PneumaCult ALI, […] Technologies, Cambridge, MA) for a minimum of 4–5 wk until fully differentiated. To stimulate fresh mucus secretion and formation of an even ASL layer, the cells were washed 48–72 h before experimentation with PneumaCult ALI media (80 µL), added apically, and then aspirated following 30–45 min incubation at 37°C. The washing process was repeated with a 15-min incubation period and the mucus layer was allowed to reestablish, after which the cells were treated with 1 µL of AZD5634 (1 µM, apical), alone and in combination with lumacaftor and ivacaftor (luma/iva; 3 µM/10 µM, basolateral). PBS (1% DMSO, apical) served as a vehicle control. […] Only passage 1 and 2 monolayers were used for these studies.
μOCT imaging and analysis were conducted in vitro and ex vivo as detailed in previous publications ([2], [39]–[41]). […] Following imaging of HBEC cultures and of excised trachea and lungs, images were assessed to obtain quantitative measurements of mucociliary transport (MCT) rate, ASL depth, and ciliary beat frequency (CBF). MCT rates were calculated by analyzing the distance traveled by native particles in the mucus layer over time across multiple frames. […] CBF was determined by using custom code developed in Matlab (Mathworks, Natick, MA) to quantify the reflectance of beating cilia by Fourier analysis. […]
(§1) Descriptive statistics were calculated and means compared using unpaired or paired t tests, or ANOVA, with post hoc analyses conducted for multiple comparisons where appropriate. […]

In experiment [3] the test system is Cftr^−/− rats. The experiment in a line: μOCT of trachea and lungs excised en bloc from Cftr-knockout rats treated in vivo. More on the design: species or system rat. The settings on record: seven 200-μL doses of 54 µM by oropharyngeal aspiration over 4 days; not significant vs vehicle. As to the method: μOCT imaging and analysis were conducted in vitro and ex vivo as detailed in previous publications ([2], [39]–[41]). Briefly, the μOCT system uses light reflectance to produce video-rate (40 frames/s and 512 lines/frame), high-resolution images (1 micron) captured in real-time and without disruption of sample tissue, permitting simultaneous interrogation of key parameters of airway microanatomy without the addition of exogenous particles or dyes. Following imaging of HBEC cultures and of excised trachea and lungs, images were assessed to obtain quantitative measurements of mucociliary transport (MCT) rate, ASL depth, and ciliary beat frequency (CBF). MCT rates were calculated by analyzing the distance traveled by native particles in the mucus layer over time across multiple frames. Direct geometric measurement of layer thickness (Image J software) yielded ASL depths. CBF was determined by using custom code developed in Matlab (Mathworks, Natick, MA) to quantify the reflectance of beating cilia by Fourier analysis. […] The results for each trachea and lung sample reflected an average of measurements from images obtained from a minimum of six controlled points along the tracheal length, using the cranial end as a reference.
Six-month-old Cftr-knockout rats (female and male) were treated with seven 200-μL doses of either 54 µM AZD5634 or vehicle control, delivered by oropharyngeal aspiration, over 4 days (two doses daily for 3 days and a single dose on the 4th day, 2 h before euthanasia). Rats were euthanized by intraperitoneal injection of pentobarbital sodium (Fatal Plus, 100 mg/kg), and trachea and lungs were excised en bloc and dissected along the dorsal surface from the larynx to the terminal end of the main stem bronchi. […]
as §1

What is called IC50 is the point on the concentration scale where inhibition reaches its midpoint. In the case of AZD5634, the IC50 in experiment [1] was 5.5 nM. Also, the ASL depth in experiment [2] (6 h, luma/iva 3 µM/10 µM basolateral, absolute values) is reported as 24.8 ± 3.6 µm. Moreover, the CBF in experiment [2] (absolute value) is listed as 8.6 ± 0.5 Hz. For the same substance, the MCT rate in experiment [2] (luma/iva 3 µM/10 µM basolateral, absolute values) was 2.5 ± 0.5 mm/min. For the same substance, in experiment [3], the ASL depth worked out at 15.8 ± 2.1 µm, the MCT rate amounted to 0.3 ± 0.1 mm/min and the “ciliary beating (CBF)” value is 7.9 ± 0.7 Hz.
